# Measured values reported in patent publication US4621077A, “Pharmacologically active biphosphonates, process for the preparation thereof and pharmaceutical compositions therefrom” (Istituto Gentili S.p.A., priority 1982, dated 1986).
# Where “and” joins values, the source holds several entries; their conditions need not be identical. Equal values may be shown once.
# Legend:
# [1] = system: bone reabsorption (metaphyseal bone density); assay: Metaphyseal bone density / inhibition of bone reabsorption in rats treated for 7 days; format: in vivo; settings: 7 days, rats
# injection sites / skin = assay: Necrosis at the injection sites in rats (local skin toxicity)
# Source text: The symbol "x" represents a conventional score, that is "x" meand slight necrosis, "xx" means severe necrosis, "xxx" means very severe necrosis.
# [2] = system: patients with tumoral osteolysis; settings: comparison stated for other bisphosphonates, no own test shown; cited from earlier work
structure (smiles),measurement,setting,value
"NCCC(O)(P(=O)(O)O)P(=O)(O)O [AHPrBP, 3-amino-1-hydroxypropylidene-1,1-bisphosphonate]",metaphysical density,"[1]; 0.01 mg P/kg s.c., s.c. NaCl controls 29.72",39.53 % volume of calcified tissue
same,metaphysical density,"[1]; 0.1 mg P/kg s.c., s.c. NaCl controls 29.72",50.31 % volume of calcified tissue
same,metaphysical density,"[1]; 2.0 mg P/kg p.o., p.o. NaCl controls 28.45",33.72 % volume of calcified tissue
same,necrosis at the injection sites,"injection sites / skin; 0.01 mg P/kg, 1 day",.0.
same,necrosis at the injection sites,"injection sites / skin; 0.01 mg P/kg, 2 day",.0.
same,necrosis at the injection sites,"injection sites / skin; 0.01 mg P/kg, 3 day",.0.
same,necrosis at the injection sites,"injection sites / skin; 0.01 mg P/kg, 4 day",.0.
same,necrosis at the injection sites,"injection sites / skin; 0.01 mg P/kg, 5 day",.0.
same,necrosis at the injection sites,"injection sites / skin; 0.01 mg P/kg, 6 day",.0.
same,necrosis at the injection sites,"injection sites / skin; 0.01 mg P/kg, 7 day",.0.
same,necrosis at the injection sites,"injection sites / skin; 0.1 mg P/kg, 1 day",.0.
same,necrosis at the injection sites,"injection sites / skin; 0.1 mg P/kg, 2 day",.0.
same,necrosis at the injection sites,"injection sites / skin; 0.1 mg P/kg, 3 day",.0.
same,necrosis at the injection sites,"injection sites / skin; 0.1 mg P/kg, 4 day",.0.
same,necrosis at the injection sites,"injection sites / skin; 0.1 mg P/kg, 5 day",.0.
same,necrosis at the injection sites,"injection sites / skin; 1 mg P/kg, 1 day",xxx and .0.
same,necrosis at the injection sites,"injection sites / skin; 1 mg P/kg, 2 day",xxx and .0.
same,necrosis at the injection sites,"injection sites / skin; 1 mg P/kg, 3 day",.0.
same,necrosis at the injection sites,"injection sites / skin; 10 mg P/kg, 1 day",xxx
same,necrosis at the injection sites,"injection sites / skin; 10 mg P/kg, 2 day",xxx
same,"local / topical skin toxicity, in words","injection sites / skin; rat, in vivo",The most toxic substance
same,fever after administration,[2],occurs very frequently
